Laboratory results from article PMC7508948, “Identification and validation of novel and more effective choline kinase inhibitors against Streptococcus pneumoniae” (Scientific Reports, 2020).
Like-named read-outs stand apart in the source and are kept apart here.

How the values were obtained:
sChoK [1] = target: T1, sChoK (Streptococcus pneumoniae, UniProt Q8DPI4); test: Colorimetric choline kinase assay with S. pneumoniae extracts; assay type: biochemical; details: choline consumption
Description: (§1) When using cell extracts such as BL21 (DE3) extracts containing sChoK or S. pneumoniae extracts as the enzyme source, a colorimetric method was used to quantify Cho consumption and PCho production as described previously.
In light of the inconsistent results between sChoK inhibition by MN58b and RSM-932A which are both known choline kinase inhibitors, we repeated the colorimetric experiments using S. pneumoniae extracts as the source of sChoK, The goal of the experiment was to determine whether or not differences in sChoK inhibition could be detected in a more native environment than that provided by extracts of E. coli overexpressing sChoK or purified sChoK. […] This agonism was confirmed by mass spectrometry (data not shown) and was also found to be ATP dependent, thereby supporting the inference that RSM-932A was still affecting sChoK activity, although in the opposite direction.

S. pneumoniae R6 cells = test: Western blot detection of lipoteichoic acid (LTA); assay type: cell-based, Streptococcus pneumoniae; details: cells grown to saturation with 0.5 MIC
Procedure: R6 cells were cultured to saturation in either BHI-cat alone or BHI-cat 0.5 MIC of MN58b or RSM-932A. One milliliter (1 mL) of cell samples was centrifuged at 3,000g, sonicated 3 × 2 min on ices. Western blots were performed as described[3] while total protein on the membrane was measured by fluorescence according to Quickstain instructions.
In order to quantify LTA production, western blots were performed on extracts of cells grown to saturation in the presence of 0.5 MIC MN58b or RSM-932A. LTA band patterns clearly differed between treatments. […] It is important to note that each size band in an LTA western blot differs from the lower one by a single LTA residue (Fig. 4A)[19].

S. pneumoniae [2] = test: Percent O.D. changes of cultures exposed to multiples of MIC (bacteriostatic/bacteriolytic); assay type: cell-based, Streptococcus pneumoniae; details: cultures grown to O.D. 0.500, concentrations as multiples of MIC
Procedure: (§2) Figure 3 Effect of drugs on the autolytic process. (A) Percent changes in O.D. were measured in cultures of S. pneumoniae exposed to various concentrations of drugs expressed as multiples of MIC. Percent changes were calculated by comparing initial and final O.D. values. (B) O.D. changes in cells treated with vancomycin (VAN) in the presence and absence of HC-3 (HC3), MN58b (MN), and RSM-932A (RSM). (C) Detergent induced lysis of cells grown to saturation in the presence of 0.5 MIC MN58b and RSM-932A. (D) Phosphate induced lysis of cells grown to saturation in the presence of 0.5 MIC MN58b and RSM-932A.

S. pneumoniae [3] = test: Detergent and phosphate induced lysis of cells grown with 0.5 MIC inhibitor; assay type: cell-based, Streptococcus pneumoniae; details: cells grown in presence of 0.5 MIC
Procedure: as §2
Given the observation that MN58b and RSM-932A were sChoK inhibitors, our expectation was that cells treated with these inhibitors would show a decrease in overall LTA content because a decrease in phosphocholine availability would reduce the overall production of LTA residues and, by extension, LTA molecules. A reduction in LTA content, in turn, should help desensitize cells to autolytic induction. Although autolysin proteins would be released, they would not be able to dock on the cell surface because the autolysin choline binding domains would have fewer choline containing LTA molecules with which to interact. Both LTA reduction and cell […] had previously been observed with HC-3[17].

sChoK [4] = target: T1, sChoK; test: Substrate-inhibitor competition (competitivity) by LDH/PK; assay type: biochemical
Procedure: The mechanism of action of the inhibitors with respect to each substrate was determined using a previously described method[13],[14]. Briefly, using the IC50 of each inhibitor determined at the Km of choline, the concentration of one substrate was kept constant, and initial velocities were measured while varying the second substrate in the presence and absence of the inhibitor. The percentage of inhibition (%I) was determined by dividing each initial velocity in the presence of the inhibitor with its corresponding initial velocity in the absence of compound. %I was plotted against concentration and fitted using a two-parameter-fit nonlinear regression algorithm of GnuPlot v 4.3 into Eq. (2).2 %I=100×(([I]/Ki+[S][I]/αKsKi/(1+[S]/Ks+[I]/Ki+[S][I]/αKsKi)) where [S] is the concentration of the varied substrate, [I] is the concentration of inhibitor, Ks is the dissociation constant of the substrate (assumed to be equal to the Km), Ki is the dissociation constant of the inhibitor, and α is a numerical constant that measures the effect the substrate has on the binding of the inhibitor and vice versa.
A mechanistic analysis was performed for each inhibitor by performing steady-state enzymatic reactions with sChoK in which one substrate was varied while the other substrate was fixed both in assays with and without inhibitor fixed at a concentration equal to its IC50. sChoK inhibition was calculated as a percentage (%I) calculated by dividing the initial velocity at each substrate concentration with inhibitor by counterpart initial velocities in the absence of inhibitor. %I values were plotted against substrate concentration. The resulting data was fitting to an Eq. (2) and Ki and α values calculated.

sChoK [5] = target: T1, sChoK; test: IC50 by LDH/PK with purified recombinant sChoK; assay type: biochemical
Procedure: Purified sChoK was used in these assays. Steady-state enzymatic assays were monitored with the pyruvate kinase/lactate dehydrogenase (PK/LDH) reaction. The steady-state rate of ADP formation was calculated using an extinction coefficient of 6,200 M^−1 cm^−1 to determine linear reductions in NADH concentrations that were observed by absorbance at 340 nm. Measurements were carried out at 25 °C in a UV-Star 96-well plate (Greiner) placed in a Synergy HT microplate reader (Biotek). Each well contained 200 µL of a solution containing 22 nM sChoK enzyme, 100 mM Tris pH 8, 10 mM MgCl2, 150 mM NaCl, 150 mM KCl, […], 0.66 mM phosphoenolpyruvate, 20 units of LDH, and 10 units of PK, choline. ATP. […] The kcat was calculated by dividing the Vmax by the enzyme concentration.
Using the conditions described above, the concentration of choline was set to the Km and increasing amounts of inhibitor were tested. Percent inhibition was determined. The IC50 was determined as the concentration of inhibitor required to reach 50% inhibition.

S. pneumoniae [6] = test: Interaction with vancomycin-provoked cell lysis; assay type: cell-based, Streptococcus pneumoniae; details: O.D. changes with vancomycin in presence of inhibitor
Procedure: as §2
Autolysis is a process of cell lysis and death that is mediated by LTAs via choline binding autolysins[19] such as LytA. […] In light of the non-specificity observed with HC-3 (being able to interfere with both ChoKs and the autolytic process), it seemed logical to check the specificity of MN58b and RSM-932A for sChoK inhibition. The interaction of MN58b, RSM-932A, and HC-3 with bacteriolytic antibiotic vancomycin was determined (Fig. 3B). […] The non-specificity of HC-3 may help to explain its weakness against sChoK.

sChoK [7] = target: T1, sChoK; test: IC50 by colorimetric method with BL21 (DE3) extracts expressing recombinant sChoK; assay type: biochemical
Procedure: as §1
The IC50s of each drug against sChoK were measured using two methods: the indirect ldh/pk method that relied on recombinant sChoK and which indirectly measured consumption of ATP[14] and a previously reported colorimetric method that relied on BL21 (DE3) extracts expressing recombinant sChoK, which directly measured the consumption of choline and the production of phosphocholine. Inhibitors were similarly effective in a complex cell extract and in a simplified system relying on a purified enzyme. […] RSM-932A was stronger that MN58b by 1–2 orders of magnitude.

S. pneumoniae R6 strain [8] = test: Minimum inhibitory concentration (MIC) and minimum lethal concentration (MLC) in culture; assay type: cell-based, Streptococcus pneumoniae; details: for MLC: S. pneumoniae R6, 99.9% of cells killed by CFU counts; for MIC: Streptococcus pneumoniae, R6STRAIN, S. pneumoniae R6, BHI-CAT, O.D.610 of 0 at end of culture
Procedure: Seven μL of a glycerol stock of the S. pneumoniae R6 strain was used to inoculate 7 mL of Brain Heart Infusion broth (BHI, Accumedia, Sydney, Australia) supplemented with 5 units/mL catalase (BHI-CAT). This starter culture was incubated at 37 °C in a water bath until an optical density at 610 nm (OD610) […]. Forty μL of this starter culture was used to inoculate 40 mL of BHI-CAT media with or without varying concentrations of inhibitor.
MIC was determined as the concentration inhibitor at which an O.D.610 of 0 was measured at the end of culture time. MLC was defined as the concentration at which 99.9% of cells were killed at the end of culturing time as determined by CFU counts using Meuller–Hinton plates.

S. pneumoniae R6 strain [9] = test system: S. pneumoniae R6 strain; parameters: method as in PMID 28946671; details: previously reported; cited from earlier work
sChoK [10] = target: T1, sChoK; parameters: method as in doi:10.30721/fsab2018.v1.i2.40; details: previously reported; read-out: IC50 against sChoK; cited from earlier work

T1 sequence (Q8DPI4 entry or part of it): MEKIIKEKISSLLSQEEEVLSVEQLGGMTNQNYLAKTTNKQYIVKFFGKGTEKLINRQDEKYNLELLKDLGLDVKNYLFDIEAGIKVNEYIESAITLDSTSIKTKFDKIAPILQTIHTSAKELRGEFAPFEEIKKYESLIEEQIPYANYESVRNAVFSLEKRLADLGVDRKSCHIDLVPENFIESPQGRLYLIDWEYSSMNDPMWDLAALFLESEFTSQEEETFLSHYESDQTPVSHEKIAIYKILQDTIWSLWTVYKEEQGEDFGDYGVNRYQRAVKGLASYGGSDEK

| SMILES | Effect on choline kinase activity in S. pneumoniae extracts (sChoK [1]) | LTA size pattern (S. pneumoniae R6 cells) | Total LTA production (S. pneumoniae R6 cells) | Bacteriostatic or bacteriolytic action (S. pneumoniae [2]) | Sensitivity of cells to induced autolysis (S. pneumoniae [3]) | Kminh/Kmfree (sChoK [4]; (A) inhibitor vs ATP) | Mechanism of Inhibition (sChoK [4]; (A) inhibitor vs ATP) | Vmaxinh/Vmaxfree (sChoK [4]; (A) inhibitor vs ATP) | α (sChoK [4]; (A) inhibitor vs ATP) | Mechanism of Inhibition (sChoK [4]; (B) inhibitor vs choline) | Vmaxinh/Vmaxfree (sChoK [4]; (B) inhibitor vs choline) | Ki (sChoK [4]; (A) inhibitor vs ATP) | Ki (sChoK [4]; (B) inhibitor vs choline) | IC50 (sChoK [5]) | Effect on cell lysis provoked by vancomycin (S. pneumoniae [6]) | IC50 (sChoK [7]) | MLC (S. pneumoniae R6 strain [8]) | MIC (S. pneumoniae R6 strain [8]) | other results |
| --- | --- | --- | --- | --- | --- | --- | --- | --- | --- | --- | --- | --- | --- | --- | --- | --- | --- | --- | --- |
| CN(c1ccc(Cl)cc1)c1cc[n+](Cc2ccc(-c3ccc(C[n+]4ccc(N(C)c5ccc(Cl)cc5)c5ccccc54)cc3)cc2)c2ccccc12.[Br-].[Br-] [RSM-932A, 1,1′-([1,1′-biphenyl]-4,4′-diylbis(methylene))bis(4-((4-chlorophenyl)(methyl)amino)quinolin-1-ium) bromide] | somewhat inhibitory at lower concentrations, it functioned as an agonist of choline kinase activity at higher concentrations | larger size polymers were favored | overall production remained unchanged | bacteriostatic up to a concentration of 50 × MIC after which they become bacteriolytic | equally sensitive to autolysis as untreated controls | 0.92 | Noncompetitive | 0.61 | 1.1 ± 0.17 | Mixed | 0.76 | 35.8 ± 3.2 µM | 10.6 ± 0.9 µM | 22 µM | minimal to no effect | 0.5 µM | 1.6 µM | 0.4 µM | α (sChoK [4]; (B) inhibitor vs choline): 8.1 ± 1.8 |
| CN(C)c1cc[n+](Cc2ccc(CCCCc3ccc(C[n+]4ccc(N(C)C)cc4)cc3)cc2)cc1 [MN58b, 1,4-[4–4′-Bis-{[4-(dimethylamine)pyridinium-1-yl]methyl}diphenyl]butane dibromide] | continued to function as an inhibitor of choline kinase activity | marked increase in the smaller sizes of LTA | marked increase in total LTA production | bacteriostatic up to a concentration of 50 × MIC after which they become bacteriolytic | primed the cells to be autolyzed | 3.48 | Mixed | 0.76 | 6.0 ± 2.2 | Mixed | 0.69 | 182 ± 28.1 µM | 124 ± 19.2 µM | 645 µM | minimal to no effect | 225 µM | 20 µM | 10 µM | Kminh/Kmfree (sChoK [4]; (B) inhibitor vs choline): 2.3 |
| C[N+]1(C)CCOC(O)(c2ccc(-c3ccc(C4(O)C[N+](C)(C)CCO4)cc3)cc2)C1 (centres unmarked) [HC-3, Hemicholinium-3] |  |  |  |  |  |  |  |  |  |  |  |  |  |  | prevented cell lysis provoked by vancomycin |  |  |  | MIC (S. pneumoniae R6 strain [9]): 5,400 µM; IC50 (sChoK [10]): 2700 µM |
